Values quoted from earlier work as cited in patent publication US20190328829A1, “TRIPARTITE COMBINATION THERAPY FOR PROSTATE CANCER” (UNIVERSITY OF MARYLAND, BALTIMORE, priority 2016, published 2019).

Tests used:
[1] = tested on: testosterone; details: males, continuous administration

solubility in water | SMILES | testosterone reduced to castrate levels [1]
virtually insoluble in water | O=c1c(-c2ccc(O)cc2)coc2cc(O)cc(O)c12 [Genistein, 5,7-dihydroxy-3-(4-hydroxyphenyl)-chromen-4-one] | –
– | CCNC(=O)[C@@H]1CCCN1C(=O)[C@H](CCCNC(=N)N)NC(=O)[C@H](CC(C)C)NC(=O)[C@@H](CC(C)C)NC(=O)[C@H](Cc1ccc(O)cc1)NC(=O)[C@H](CO)NC(=O)[C@H](Cc1c[nH]c2ccccc12)NC(=O)[C@H](Cc1c[nH]cn1)NC(=O)[C@@H]1CCC(=O)N1 [leuprolide acetate, Leuprolide acetate] | below 50 ng/dL
